Experimental data: US10934285B2, “Compounds and compositions for inhibiting the activity of SHP2” (Novartis AG, priority 2016, dated 2021)

molecular target: SHP2 (Homo sapiens (Human), UniProt Q06124); assay: SHP2 Allosteric Inhibition Assay; assay type: biochemical; details: 0.5 nM SHP2 activated with 0.5 μM peptide IRS1_pY1172(dPEG8)pY1222; surrogate substrate DiFMUP; prompt fluorescence
Excerpt: SHP2 Allosteric Inhibition Assay
SHP2 is allosterically activated through binding of bis-tyrosyl-phorphorylated peptides to its Src Homology 2 (SH2) domains. The latter activation step leads to the release of the auto-inhibitory interface of SHP2, which in turn renders the SHP2 protein tyrosine phosphatase (PTP) active and available for substrate recognition and reaction catalysis. The catalytic activity of SHP2 was monitored using the surrogate substrate DiFMUP in a prompt fluorescence assay format.
After 30-60 minutes incubation at 25° C., the surrogate substrate DiFMUP (Invitrogen, cat #D6567) was added to the reaction and incubated at 25° C. for 30 minutes. […] The inhibitor dose response curves were analyzed using normalized IC50 regression curve fitting with control based normalization.

SHP2, sequence (Q06124 whole entry): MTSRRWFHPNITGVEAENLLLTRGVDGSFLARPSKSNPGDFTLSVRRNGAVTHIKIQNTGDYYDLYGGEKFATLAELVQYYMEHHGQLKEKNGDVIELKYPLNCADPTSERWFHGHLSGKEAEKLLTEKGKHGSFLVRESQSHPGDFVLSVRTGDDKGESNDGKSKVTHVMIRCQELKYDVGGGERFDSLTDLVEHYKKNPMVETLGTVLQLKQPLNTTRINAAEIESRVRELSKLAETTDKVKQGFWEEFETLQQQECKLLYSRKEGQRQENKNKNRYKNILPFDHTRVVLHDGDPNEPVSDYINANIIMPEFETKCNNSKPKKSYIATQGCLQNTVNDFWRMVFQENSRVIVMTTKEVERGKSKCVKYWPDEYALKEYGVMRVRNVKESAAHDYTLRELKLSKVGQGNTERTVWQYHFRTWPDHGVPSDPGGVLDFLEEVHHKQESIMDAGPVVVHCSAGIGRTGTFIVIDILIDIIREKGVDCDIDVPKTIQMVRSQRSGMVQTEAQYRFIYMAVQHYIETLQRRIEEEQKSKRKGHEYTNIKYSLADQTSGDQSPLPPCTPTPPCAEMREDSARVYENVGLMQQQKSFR

| SMILES | IC50 [nM] |
| --- | --- |
| CC1(CN)CCN(c2nnc(Sc3cccc(NC(=O)c4c(O)nc5ccccc5c4O)c3Cl)c(N)n2)CC1 [Example 31, N-(3-((5-amino-3-(4-(aminomethyl)-4-methylpiperidin-1-yl)-1,2,4-triazin-yl)thio)-2-chlorophenyl)-2,4-dihydroxyquinoline-3-carboxamide] | 38 |
| CC1(CN)CCN(c2cnc(Sc3cccc(NC(=O)c4c(O)nc5sccn5c4=O)c3Cl)c(N)n2)CC1 [Example 3, N-(3-((3-amino-5-(4-(aminomethyl)-4-methylpiperidin-1-yl)pyrazin-2-yl)thio)-2-chlorophenyl)-7-hydroxy-5-oxo-5H-thiazolo[3,2-a]pyrimidine-6-carboxamide] | 6 |
| O=C(Nc1cccc(Sc2ccc3nc(N4CCCCC4)[nH]c3n2)c1Cl)C1=C(O)[C@H](Cc2ccccc2)NC1=O [Example 60, (S)-5-benzyl-N-(2-chloro-3-((2-(piperidin-1-yl)-3H-imidazo[4,5-b]pyridin-5-yl)thio)phenyl)-4-hydroxy-2-oxo-2,5-dihydro-1H-pyrrole-3-carboxamide] | 11 |
| NCC1(F)CCN(c2cnc(Sc3cccc(NC(=O)c4c(O)nc5ccccn5c4=O)c3Cl)c(N)n2)CC1 [Example 15, N-(3-((3-amino-5-(4-(aminomethyl)-4-fluoropiperidin-1-yl)pyrazin-2-yl)thio)-2-chlorophenyl)-2-hydroxy-4-oxo-4H-pyrido[1,2-a]pyrimidine-3-carboxamide] | 10 |
| CC1(N)CCN(c2cnc(Sc3cccc(NC(=O)C4=C(O)CN(c5ccccc5)C4=O)c3C(F)(F)F)c(N)n2)CC1 [Example 67, N-(3-((3-Amino-5-(4-amino-4-methylpiperidin-1-yl)pyrazin-2-yl)thio)-2-(trifluoromethyl)phenyl)-4-hydroxy-2-oxo-1-phenyl-2,5-dihydro-1H-pyrrole-3-carboxamide] | 4 |
| CN1C(=O)C(C(=O)Nc2cccc(Sc3ncc(N4CCC(C)(N)CC4)nc3N)c2Cl)=C(O)C1Cc1ccccc1 (stereo not drawn) [Example 54, N-(3-((3-amino-5-(4-amino-4-methylpiperidin-1-yl)pyrazin-2-yl)thio)-2-chlorophenyl)-5-benzyl-4-hydroxy-1-methyl-2-oxo-2,5-dihydro-1H-pyrrole-3-carboxamide] | 7.3 |
| CN1C(=O)C(C(=O)Nc2cccc(Sc3ncc(N4CCC(C)(N)CC4)nc3N)c2Cl)=C(O)C1(C)C [Example 59, N-(3-((3-amino-5-(4-amino-4-methylpiperidin-1-yl)pyrazin-2-yl)thio)-2-chlorophenyl)-4-hydroxy-1,5,5-trimethyl-2-oxo-2,5-dihydro-1H-pyrrole-3-carboxamide] | < 3 |
| Nc1nc(N2CCC3(CC2)CCC(F)(F)[C@H]3N)cnc1Sc1cccc(NC(=O)c2c(O)nc3ccccn3c2=O)c1Cl [Example 22, (S)-N-(3-((3-amino-5-(1-amino-2,2-difluoro-8-azaspiro[4.5]decan-8-yl)pyrazin-2-yl)thio)-2-chlorophenyl)-2-hydroxy-4-oxo-4H-pyrido[1,2-a]pyrimidine-3-carboxamide] | 10 |
| CC1(CN)CCN(c2nnc(Sc3cccc(NC(=O)c4ccc5ccccn5c4=O)c3Cl)c(N)n2)CC1 [Example 40, N-(3-((5-amino-3-(4-(aminomethyl)-4-methylpiperidin-1-yl)-1,2,4-triazin-6-yl)thio)-2-chlorophenyl)-4-oxo-4H-quinolizine-3-carboxamide] | 173 |
| CC1(N)CCN(c2cnc(Sc3cccc(NC(=O)c4c(O)nc5ccccn5c4=O)c3Cl)c(N)n2)CC1 [Example 1, N-(3-((3-Amino-5-(4-amino-4-methylpiperidin-1-yl)pyrazin-2-yl)thio)-2-chlorophenyl)-2-hydroxy-4-oxo-4H-pyrido[1,2-a]pyrimidine-3-carboxamide] | 6 |
| CC1(N)CCN(c2cnc(Sc3cccc(NC(=O)C4=C(O)CN(c5ccccc5)C4=O)c3Cl)c(N)n2)CC1 [Example 53, N-(3-((3-amino-5-(4-amino-4-methylpiperidin-1-yl)pyrazin-2-yl)thio)-2-chlorophenyl)-4-hydroxy-2-oxo-1-phenyl-2,5-dihydro-1H-pyrrole-3-carboxamide] | 4.4 |
| CC1(CN)CCN(c2cnc(Sc3cccc(NC(=O)c4c(O)nc5ccccn5c4=O)c3Cl)c(N)n2)CC1 [Example 2, N-(3-((3-amino-5-(4-(aminomethyl)-4-methylpiperidin-1-yl)pyrazin-2-yl)thio)-2-chlorophenyl)-2-hydroxy-4-oxo-4H-pyrido[1,2-a]pyrimidine-3-carboxamide] | 7 |
| NCC1(F)CCN(c2cnc(Sc3cccc(NC(=O)c4c(O)nc5n(c4=O)CCCC5)c3Cl)c(N)n2)CC1 [Example 16, N-(3-((3-amino-5-(4-(aminomethyl)-4-fluoropiperidin-1-yl)pyrazin-2-yl)thio)-2-chlorophenyl)-2-hydroxy-4-oxo-6,7,8,9-tetrahydro-4H-pyrido[1,2-a]pyrimidine-3-carboxamide] | 8 |
| Nc1nc(N2CCC(N)(CF)CC2)cnc1Sc1cccc(NC(=O)c2c(O)nc3ccccn3c2=O)c1Cl [Example 13, N-(3-((3-amino-5-(4-amino-4-(fluoromethyl)piperidin-1-yl)pyrazin-2-yl)thio)-2-chlorophenyl)-2-hydroxy-4-oxo-4H-pyrido[1,2-a]pyrimidine-3-carboxamide] | 4.6 |
| CN1C(=O)C(C(=O)Nc2cccc(Sc3ccc4nc(N5CCCCC5)[nH]c4n3)c2Cl)=C(O)C1Cc1ccccc1 (stereo not drawn) [Example 61, 5-benzyl-N-(2-chloro-3-((2-(piperidin-1-yl)-3H-imidazo[4,5-b]pyridin-5-yl)thio)phenyl)-4-hydroxy-1-methyl-2-oxo-2,5-dihydro-1H-pyrrole-3-carboxamide] | 22 |
